What was measured:
Format in all cases: physicochemical
[1] = Decomposition of compound by X-ray irradiation, residual ratio by HPLC (Examples 5 to 8); conditions: 0.5 μM compound in 0.1-M phosphoric acid buffer pH 7.0, bubbled with Ar, X-rays 6 MeV, 20 Gy, 4.4 Gy/min
Experimental: HPLC System: HPLC system (produced by Shimadzu Corporation) equipped with a reverse-phase column Inertsil ODS-3 (10 mm×250 mm) (produced by GL Sciences).
Eluent A: 0.1-M triethylamine acetic acid buffer solution
This buffer solution was used as an X-ray irradiation solution for the compound.
The X-ray irradiation solution for the compound was bubbled with Ar and then irradiated with X-rays at 6 MeV (20 Gy, 4.4 Gy/min) using LINAC (linear accelerator).
The peak area ratio was calculated on the basis of the areas of absorption peaks of the compound and methylene blue. The ratio between the concentrations of methylene blue and the compound was determined using the calibration curve. The concentration of the compound was calculated using the known concentration of the methylene blue. Thus, the residual ratio (Post/Pre (%)) of the compound was determined.
Note that, the smaller the residual ratio (Post/Pre (%)), the higher the degree of progress of the decomposition (selectively decomposition of chemical bonds; dissociation of axial ligands) by X-rays.

[2] = Impact of pH on decomposition of the compound by X-ray irradiation (residual ratio by HPLC); conditions: X-rays 6 MeV, 20 Gy absorbed, average of three
Experimental: In a phosphoric acid buffer solution having a pH of 6 or 7, 5 μM of the compound 2 was dissolved. While degassing was performed using Ar, the resulting mixture was irradiated with X-rays (6 MeV) using LINAC such that the amount of X-rays absorbed was 20 Gy. The sample irradiated with X-rays was analyzed using HPLC as in Example 5 to calculate the residual ratios of the compound 2 at the above pH values. The above calculation was conducted three times for each case, and the average was considered as the residual ratio (Post/Pre (%)) of the compound 2.
In Reference Example 2 where the compound 2 was dissolved in a phosphoric acid buffer solution having a pH of 7, the residual ratio (Post/Pre (%)) at which the compound 2 remained after the X-ray irradiation was 50.0%.
This confirms that, the lower the pH, the higher the likelihood of dissociation of the axial ligands.

[3] = Impact of radical species on decomposition of the compound by X-ray irradiation (residual ratio by HPLC); conditions: 6 MeV
Experimental: Sodium formate was added to a 5-μM aqueous solution of the compound 2 as a radical scavenger. While degassing was performed using Ar, the resulting mixture was irradiated with X-rays (6 MeV) using LINAC such that the amount of X-rays absorbed was 2, 3, 4, or 5 Gy. Immediately after the irradiation, the degassing was stopped and the sample irradiated with X-rays was analyzed using HPLC as in Example 5 to calculate the residual ratios of the compound 2 under the above irradiation conditions. Note that, when the amount of X-rays emitted was 5 Gy, the amount of e^−aq (hydrated electrons) produced was 1.6 μM and the amount of CO2^−·(carbon dioxide anion radicals) produced was 1.6 μM. The irradiation and calculation of the residual ratio were conducted three times for each case, and the average was considered as the residual ratio (Post/Pre (%)) of the compound 2.
The residual ratio (Post/Pre (%)) of the compound 2 was calculated as in Reference Example 3, except that the degassing was stopped after the Ar degassing had been maintained 30 minutes subsequent to the X-ray irradiation.
The residual ratio (Post/Pre (%)) of the compound 2 was calculated as in Reference Example 3, except that, instead of sodium formate, sodium formate and nitrous oxide were used as a radical scavenger. Note that, when the amount of X-rays emitted was 5 Gy, the amount of e^−aq (hydrated electrons) produced was 0 μM and the amount of CO2^−·(carbon dioxide anion radicals) produced was 3.1 μM.
The residual ratio (Post/Pre (%)) of the compound 2 was calculated as in Reference Example 5, except that the degassing was stopped after the Ar degassing had been maintained 30 minutes subsequent to the X-ray irradiation.
The residual ratio (Post/Pre (%)) of the compound 2 was calculated as in Reference Example 3, except that the radical scavenger was not used.
The results obtained in Reference Example 3 to 6 confirm that, even in the case where the amount of X-ray (6 MeV) emitted is 10 Gy or less, that is, for example, 2 to 5 Gy, the selective decomposition of the chemical bonds of the compound 2 (dissociation of axial ligands) occurs due to the action of e^−aq (hydrated electrons) and/or CO2^−·(carbon dioxide anion radicals). It was also confirmed that continuing the Ar degassing subsequent to the irradiation enables the selective decomposition of the chemical bonds of the compound 2 to occur.
On the basis of the results obtained in Reference Examples 3 to 6, it is also considered that e^−aq (hydrated electrons) and/or CO2^−·(carbon dioxide anion radicals) contribute to the dissociation of the axial ligands of the compound 2. Since the residual ratio of the compound 2 decreased in the cases where the degassing was maintained, it is also considered that maintaining the degassing causes a radical chain reaction responsible for the dissociation of the axial ligands.

For “Bis({6-[Tris(3-Sulfopropyl)]Ammoniohexanoyl} Oxide) Silicon Phthalocyanine [Compound 3]”, the “Post/pre (%) residual ratio of the compound after X-ray irradiation” value (from here on “Post/pre (%) residual ratio”) [1] was 62.1%.
For “Bis{3-[Tris(3-Sulfopropyl)]Ammoniopropyldimethylsilyl Oxide} Silicon Phthalocyanine [Compound 1]”, the “Post/pre (%) residual ratio” value [1] was 52.5%.
With “Bis{4-[Tris(3-Sulfopropyl)]Ammoniobutyloxide} Silicon Phthalocyanine [Compound 2]” the “Post/pre (%) residual ratio” value [1] was 46.8%, the “residual ratio (Post/Pre (%)) after X-ray irradiation” value ([2]; 5 μM in phosphoric acid buffer pH 6, Ar degassing) was 18.6% and the “residual ratio (Post/Pre (%)) after X-ray irradiation” value ([2]; 5 μM in phosphoric acid buffer pH 7, Ar degassing) was 50.0%. The “residual ratio (Post/Pre (%))” value ([3]; Reference example 3: 5 μM aqueous, sodium formate, Ar degassing stopped immediately after irradiation, 2 Gy absorbed) was 98.4%, the “residual ratio (Post/Pre (%))” value ([3]; Reference example 3: 5 μM aqueous, sodium formate, Ar degassing stopped immediately after irradiation, 3 Gy absorbed) was 93.3% and the “residual ratio (Post/Pre (%))” value ([3]; Reference example 3: 5 μM aqueous, sodium formate, Ar degassing stopped immediately after irradiation, 4 Gy absorbed) was 89.5%. The “residual ratio (Post/Pre (%))” value ([3]; Reference example 3: 5 μM aqueous, sodium formate, Ar degassing stopped immediately after irradiation, 5 Gy absorbed) was 8.8%, the “residual ratio (Post/Pre (%))” value ([3]; Reference example 4: sodium formate, Ar degassing maintained 30 minutes after irradiation, 2 Gy absorbed) was 100% and the “residual ratio (Post/Pre (%))” value ([3]; Reference example 4: sodium formate, Ar degassing maintained 30 minutes after irradiation, 3 Gy absorbed) was 49.9%. For the same substance, the “residual ratio (Post/Pre (%))” value ([3]; Reference example 4: sodium formate, Ar degassing maintained 30 minutes after irradiation, 4 Gy absorbed) was 0.3%, the “residual ratio (Post/Pre (%))” value ([3]; Reference example 4: sodium formate, Ar degassing maintained 30 minutes after irradiation, 5 Gy absorbed) was 0% and the “residual ratio (Post/Pre (%))” value ([3]; Reference example 5: sodium formate and nitrous oxide, degassing stopped immediately after irradiation, 2 Gy absorbed) was 96.0%. For the same substance, the “residual ratio (Post/Pre (%))” value ([3]; Reference example 5: sodium formate and nitrous oxide, degassing stopped immediately after irradiation, 3 Gy absorbed) was 90.4%, the “residual ratio (Post/Pre (%))” value ([3]; Reference example 5: sodium formate and nitrous oxide, degassing stopped immediately after irradiation, 4 Gy absorbed) was 86.2% and the “residual ratio (Post/Pre (%))” value ([3]; Reference example 5: sodium formate and nitrous oxide, degassing stopped immediately after irradiation, 5 Gy absorbed) was 8.3%. The “residual ratio (Post/Pre (%))” value ([3]; Reference example 6: sodium formate and nitrous oxide, Ar degassing maintained 30 minutes after irradiation, 2 Gy absorbed) was 93.1%, the “residual ratio (Post/Pre (%))” value ([3]; Reference example 6: sodium formate and nitrous oxide, Ar degassing maintained 30 minutes after irradiation, 3 Gy absorbed) was 85.4% and the “residual ratio (Post/Pre (%))” value ([3]; Reference example 6: sodium formate and nitrous oxide, Ar degassing maintained 30 minutes after irradiation, 4 Gy absorbed) was 36.1%. For the same substance, the “residual ratio (Post/Pre (%))” value ([3]; Reference example 6: sodium formate and nitrous oxide, Ar degassing maintained 30 minutes after irradiation, 5 Gy absorbed) was 4.8%, the “residual ratio (Post/Pre (%))” value ([3]; Reference example 7: no radical scavenger, Ar degassing, 2 Gy absorbed) was 100% and the “residual ratio (Post/Pre (%))” value ([3]; Reference example 7: no radical scavenger, Ar degassing, 3 Gy absorbed) was 99.4%. The “residual ratio (Post/Pre (%))” value ([3]; Reference example 7: no radical scavenger, Ar degassing, 4 Gy absorbed) was 99.4% and the “residual ratio (Post/Pre (%))” value ([3]; Reference example 7: no radical scavenger, Ar degassing, 5 Gy absorbed) was 100%.
In the case of “Bis{4-[Tris(3-Sulfopropyl)]Ammoniomethylphenoxide} Silicon Phthalocyanine [Compound 4]”, the “Post/pre (%) residual ratio” value [1] is reported as 74.8%.

Reference: US20230218761A1, “METHOD FOR DECOMPOSING COMPOUND AND COMPOUND” (NATIONAL UNIVERSITY CORPORATION HOKKAIDO UNIVERSITY, priority 2020, published 2023)
